In US8552002B2 (Novartis AG, priority 2004, dated 2013):
Like-named read-outs stand apart in the source and are kept apart here.

Key:
KDR = target: T1, KDR (Homo sapiens, UniProt P35968); experiment: Inhibitory activity against KDR (VEGF-R2), in vitro data of Examples 170 and 207; format: biochemical; settings: read-out: KDR inhibition at 10 μM
T1 construct: expressed in transfected cells; host or cells: CHO cells
Procedure, shortened: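 KDR tyrosine phosphorylation detected by luminescence after overnight 4° C capture of 20 μg lysate protein with PY20:AP antibody. Lysates came from cells given compound for 2 h at 37° C, then final 20 ng/ml VEGF for 5 min; compound-free medium as control.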

Tek = target: T2, Tek (Homo sapiens, UniProt Q02763); experiment: Recombinant GST-Tek (Tie-2) tyrosine kinase assay (33P into poly(Glu,Tyr)); format: biochemical; settings: Examples 1 to 169
T2 construct: amino acids 773-1124 of the cytoplasmic kinase domain of human Tek, N-terminally fused to GST; made in house; host or cells: Sf9 insect cells (baculovirus)
T2 sequence (Q02763 773-1124): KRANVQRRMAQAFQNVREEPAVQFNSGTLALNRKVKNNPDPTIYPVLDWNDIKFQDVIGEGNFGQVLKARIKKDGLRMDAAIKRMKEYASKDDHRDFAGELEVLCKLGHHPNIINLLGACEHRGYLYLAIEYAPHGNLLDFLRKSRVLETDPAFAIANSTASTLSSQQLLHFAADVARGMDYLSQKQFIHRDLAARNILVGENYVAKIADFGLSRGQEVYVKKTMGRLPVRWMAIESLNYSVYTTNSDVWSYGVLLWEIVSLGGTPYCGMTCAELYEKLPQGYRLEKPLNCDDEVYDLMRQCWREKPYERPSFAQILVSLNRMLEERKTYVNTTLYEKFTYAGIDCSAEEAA
Procedure, shortened: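 Read-out is filter-bound 33P in poly(Glu,Tyr) 4:1 (10 μg/mL) after 30 min at ambient temperature with 4.0 μM ATP. Enzyme: 150 ng human GST-Tek (aa 773-1124) from insect cells, in Tris pH 7.5 with Mn2+/Mg2+ and vanadate. IC50 fitted linearly over four concentrations, usually 0.01-10 μM.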

FGFR3 (K650E) = target: T3, FGFR3 (K650E) (Homo sapiens, UniProt P22607, K650E); experiment: Recombinant GST-FGFR-3-K650E tyrosine kinase assay (33P into poly(Glu,Tyr)); format: biochemical
T3 construct: amino acids 411-806 of the cytoplasmic domain of human FGFR-3, N-terminally fused to GST; made in house; host or cells: Sf9 insect cells (baculovirus)
T3 sequence (P22607 411-806 K650E): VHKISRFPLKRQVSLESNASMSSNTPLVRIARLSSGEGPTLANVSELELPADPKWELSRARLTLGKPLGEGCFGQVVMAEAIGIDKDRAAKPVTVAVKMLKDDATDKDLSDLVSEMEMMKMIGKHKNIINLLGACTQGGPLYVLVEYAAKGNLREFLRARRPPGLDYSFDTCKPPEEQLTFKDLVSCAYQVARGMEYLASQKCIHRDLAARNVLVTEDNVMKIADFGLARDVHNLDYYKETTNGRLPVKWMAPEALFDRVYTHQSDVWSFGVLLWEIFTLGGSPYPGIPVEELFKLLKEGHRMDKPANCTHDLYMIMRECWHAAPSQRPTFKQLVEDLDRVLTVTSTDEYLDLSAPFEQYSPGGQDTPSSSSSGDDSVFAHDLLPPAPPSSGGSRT

c-Abl = c-Abl (Homo sapiens, UniProt P00519); experiment: Inhibitory activity against c-Abl (Example 207); format: biochemical; settings: Examples 171 to 206
c-Abl, sequence (P00519 whole entry): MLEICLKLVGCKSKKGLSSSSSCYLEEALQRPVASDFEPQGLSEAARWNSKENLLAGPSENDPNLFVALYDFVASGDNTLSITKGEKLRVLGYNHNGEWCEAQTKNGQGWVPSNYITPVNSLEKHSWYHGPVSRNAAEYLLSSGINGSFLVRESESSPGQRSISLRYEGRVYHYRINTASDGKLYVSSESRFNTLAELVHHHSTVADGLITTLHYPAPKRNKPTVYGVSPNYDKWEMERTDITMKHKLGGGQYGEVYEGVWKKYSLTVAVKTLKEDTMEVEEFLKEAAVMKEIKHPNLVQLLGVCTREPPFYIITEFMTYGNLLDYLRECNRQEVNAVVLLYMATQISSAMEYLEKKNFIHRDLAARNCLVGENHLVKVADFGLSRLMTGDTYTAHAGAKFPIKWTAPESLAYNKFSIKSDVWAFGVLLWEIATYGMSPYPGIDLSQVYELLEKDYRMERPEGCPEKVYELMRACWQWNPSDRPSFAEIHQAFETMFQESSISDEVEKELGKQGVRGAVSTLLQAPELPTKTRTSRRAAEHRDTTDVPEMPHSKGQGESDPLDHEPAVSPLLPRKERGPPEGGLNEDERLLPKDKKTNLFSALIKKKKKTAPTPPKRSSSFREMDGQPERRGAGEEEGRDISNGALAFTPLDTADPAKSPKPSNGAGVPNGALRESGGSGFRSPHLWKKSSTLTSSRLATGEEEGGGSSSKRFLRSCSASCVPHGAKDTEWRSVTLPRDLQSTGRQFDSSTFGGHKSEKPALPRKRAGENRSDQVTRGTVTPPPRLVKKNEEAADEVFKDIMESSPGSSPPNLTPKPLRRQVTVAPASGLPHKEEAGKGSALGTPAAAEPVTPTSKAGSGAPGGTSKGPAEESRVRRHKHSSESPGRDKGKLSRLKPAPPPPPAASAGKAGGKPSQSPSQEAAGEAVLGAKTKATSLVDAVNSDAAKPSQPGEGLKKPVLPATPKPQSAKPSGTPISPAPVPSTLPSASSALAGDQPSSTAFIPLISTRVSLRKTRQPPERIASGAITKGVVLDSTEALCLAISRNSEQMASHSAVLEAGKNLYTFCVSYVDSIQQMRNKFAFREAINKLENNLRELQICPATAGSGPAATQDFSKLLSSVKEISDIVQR

[1] = 10 μM, Examples 1 to 169, read-out: FGFR3 (K650E) inhibition at 10 μM
[2] = read-out: FGFR3 (K650E) inhibition at 10 μM
[3] = 10 μM, Examples 171 to 206, read-out: FGFR3 inhibition at 10 μM

T1 sequence (P35968 20-1356): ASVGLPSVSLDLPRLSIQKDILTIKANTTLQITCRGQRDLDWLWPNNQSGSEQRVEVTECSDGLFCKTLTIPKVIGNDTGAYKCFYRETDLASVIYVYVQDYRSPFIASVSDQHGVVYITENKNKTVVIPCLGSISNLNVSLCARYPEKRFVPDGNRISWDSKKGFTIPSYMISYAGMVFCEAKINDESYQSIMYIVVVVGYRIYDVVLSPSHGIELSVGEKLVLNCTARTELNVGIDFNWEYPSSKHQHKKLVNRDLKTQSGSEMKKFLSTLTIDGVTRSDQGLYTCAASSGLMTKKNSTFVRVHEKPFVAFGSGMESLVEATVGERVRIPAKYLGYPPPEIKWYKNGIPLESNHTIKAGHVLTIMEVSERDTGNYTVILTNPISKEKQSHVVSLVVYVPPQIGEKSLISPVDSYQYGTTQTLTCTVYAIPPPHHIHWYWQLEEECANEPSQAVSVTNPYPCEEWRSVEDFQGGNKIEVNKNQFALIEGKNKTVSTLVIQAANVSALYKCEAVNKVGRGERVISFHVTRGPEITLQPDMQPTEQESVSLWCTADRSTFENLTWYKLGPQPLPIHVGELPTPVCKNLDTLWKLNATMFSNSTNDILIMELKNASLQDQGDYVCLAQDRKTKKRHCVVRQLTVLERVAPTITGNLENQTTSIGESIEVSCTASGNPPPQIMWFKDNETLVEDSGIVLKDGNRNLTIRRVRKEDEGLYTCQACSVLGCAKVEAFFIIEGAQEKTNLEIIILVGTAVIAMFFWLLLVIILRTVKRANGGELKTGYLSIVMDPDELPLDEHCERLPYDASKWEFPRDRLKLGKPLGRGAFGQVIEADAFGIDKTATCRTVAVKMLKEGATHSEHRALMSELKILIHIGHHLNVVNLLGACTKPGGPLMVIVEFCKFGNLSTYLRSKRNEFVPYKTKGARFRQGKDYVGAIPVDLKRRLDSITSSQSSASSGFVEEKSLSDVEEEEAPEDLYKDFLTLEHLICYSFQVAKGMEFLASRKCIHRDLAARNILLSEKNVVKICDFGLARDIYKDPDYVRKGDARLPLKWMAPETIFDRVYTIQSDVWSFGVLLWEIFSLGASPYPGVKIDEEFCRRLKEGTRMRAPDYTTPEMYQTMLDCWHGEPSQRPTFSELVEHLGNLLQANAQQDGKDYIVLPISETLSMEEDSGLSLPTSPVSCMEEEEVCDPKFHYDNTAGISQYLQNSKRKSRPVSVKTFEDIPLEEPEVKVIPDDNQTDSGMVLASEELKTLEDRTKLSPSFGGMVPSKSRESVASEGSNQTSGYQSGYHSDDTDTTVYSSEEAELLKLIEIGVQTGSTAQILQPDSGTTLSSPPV

SMILES | inhibition at 10 µM (KDR; 10 μM, Examples 1 to 169) [%] | inhibition at 10 µM (Tek) [%] | melting point [°C] | inhibition at 10 µM (FGFR3 (K650E); [1]) [%] | inhibition at 10 µM (KDR; 10 μM, Examples 171 to 206) [%] | inhibition at 10 µM (FGFR3 (K650E); [3]) [%] | inhibition at 10 µM (c-Abl) [%] | inhibition at 10 µM (KDR) [%] | inhibition at 10 µM (FGFR3 (K650E); [2]) [%]
Cc1cccc(Cl)c1NC(=O)Nc1cc(Nc2cccc(OCC3CCN(C)CC3)c2)ncn1 [Example 79, 1-(2-Chloro-6-methyl-phenyl)-3-{6-[3-(1-methyl-piperidin-4-ylmethoxy)-phenylamino]-pyrimidin-4-yl}-urea] | 67 to 100 | 12 to 100 | 200 to 204 | 27 to 100 |  |  |  |  | 
Cc1cccc(Cl)c1NC(=O)Nc1cc(Nc2ccc(CN3CCN(C)CC3)cc2)ncn1 [Example 82, 1-(2-Chloro-6-methyl-phenyl)-3-{6-[4-(4-methyl-piperazin-1-ylmethyl)-phenylamino]-pyrimidin-4-yl}-urea] | 67 to 100 | 12 to 100 | 199 to 201 | 27 to 100 |  |  |  |  | 
CN1CCN(Cc2ccc(Nc3cc(NC(=O)Nc4c(Cl)cccc4Cl)ncn3)cc2)CC1 [Example 83, 1-(2,6-Dichloro-Phenyl)-3-{6-[4-(4-methyl-piperazin-1-ylmethyl)-phenylamino]-pyrimidin-4-yl}-urea] | 67 to 100 | 12 to 100 | 199 to 201 | 27 to 100 |  |  |  |  | 
CC(C)Nc1cc(NC(=O)Nc2c(Cl)cccc2Cl)ncn1 [Example 68, 1-(2,6-Dichloro-phenyl)-3-(6-isopropylamino-pyrimidin-4-yl)-urea] | 67 to 100 | 12 to 100 | 203 to 204 | 27 to 100 |  |  |  |  | 
CN1CCN(Cc2ccc(Nc3cc(NC(=O)Nc4c(Cl)cc(Cl)cc4Cl)ncn3)cc2)CC1 [Example 84, 1-{6-[4-(4-Methyl-piperazin-1-ylmethyl)-phenylamino]-pyrimidin-4-yl}-3-(2,4,6-trichloro-phenyl)-urea] | 67 to 100 | 12 to 100 | 194 to 196 | 27 to 100 |  |  |  |  | 
O=C(Nc1cc(N[C@H]2CC[C@H](O)CC2)ncn1)Nc1c(Cl)cc(Cl)cc1Cl [Example 88, 1-[6-((trans)-4-Hydroxy-cyclohexylamino)-pyrimidin-4-yl]-3-(2,4,6-trichloro-phenyl)-urea] | 67 to 100 | 12 to 100 | 171 to 173 | 27 to 100 |  |  |  |  | 
CN1CCN(c2cccc(Nc3cc(NC(=O)Nc4c(Cl)cccc4Cl)ncn3)c2)CC1 [Example 5, 1-(2,6-Dichloro-phenyl)-3-{6-[3-(4-methyl-piperazin-1-yl)-phenylamino]-pyrimidin-4-yl}-urea] | 67 to 100 | 12 to 100 | 209 to 212 | 27 to 100 |  |  |  |  | 
CC(C)(C)[Si](C)(C)O[C@H]1CC[C@H](Nc2cc(NC(=O)Nc3c(Cl)cccc3Cl)ncn2)CC1 [Example 91, 1-{6-[(trans)-4-(tert-Butyl-dimethyl-silanyloxy)-cyclohexylamino]-pyrimidin-4-yl}3-(2,6-dichloro-phenyl)-urea] |  | 12 to 100 | 211 to 212 |  |  |  |  | 67 to 100 | 27 to 100
Cc1cccc(Cl)c1NC(=O)Nc1cc(N[C@H]2CC[C@H](O[Si](C)(C)C(C)(C)C)CC2)ncn1 [Example 89, 1-{6-[(trans)-4-(tert-Butyl-dimethyl-silanyloxy)-cyclohexylamino]-pyrimidin-4-yl}-3-(2-chloro-6-methyl-phenyl)-urea] |  | 12 to 100 | 218 to 220 |  |  |  |  | 67 to 100 | 27 to 100
CN1CCC(COc2ccc(Nc3cc(NC(=O)Nc4c(Cl)cccc4Cl)ncn3)cc2)CC1 [Example 71, 1-(2,6-Dichloro-phenyl)-3-{6-[4-(1-methyl-piperidin-4-ylmethoxy)-phenylamino]-pyrimidin-4-yl}-urea] | 67 to 100 | 12 to 100 | 183 to 185 | 27 to 100 |  |  |  |  | 
CN1CCN(c2ccc(Nc3cc(NC(=O)Nc4cc(Cl)ccc4Cl)ncn3)cc2)CC1 [Example 72, 1-(2,5-Dichloro-Phenyl)-3-{6-[4-(4-methyl-piperazin-1-yl)-phenylamino]-pyrimidin-4-yl}-urea] | 67 to 100 | 12 to 100 | 223 to 225 | 27 to 100 |  |  |  |  | 
Cc1cccc(Cl)c1NC(=O)Nc1cc(Nc2ccc(OCC3CCN(C)CC3)cc2)ncn1 [Example 70, 1-(2-Chloro-6-methyl-phenyl)-3-{6-[4-(1-methyl-piperidin-4-ylmethoxy)-phenylamino]-pyrimidin-4-yl}-urea] | 67 to 100 | 12 to 100 | 178 to 180 | 27 to 100 |  |  |  |  | 
CNc1cc(NC(=O)Nc2cc(NC(=O)c3cccc(C(F)(F)F)c3)ccc2C)ncn1 [Example 172, N-{4-Methyl-3-[3-(6-methylamino-pyrimidin-4-yl)-ureido]-phenyl}-3-trifluoromethyl-benzamide] |  |  |  |  | 87 to 100 | 56 to 98 | 79 to 100 |  | 
Cc1ccc(NC(=O)c2cccc(C(F)(F)F)c2)cc1NC(=O)Nc1cc(Nc2cccc(OCCN(C)C)c2)ncn1 [Example 178, N-[3-(3-{6-[3-(2-Dimethylamino-ethoxy)-phenylamino]-pyrimidin-4-yl}-ureido)-4-methyl-phenyl]-3-trifluoromethyl-benzamide] |  |  |  |  | 87 to 100 | 56 to 98 | 79 to 100 |  | 
COc1ccc(Cl)c(NC(=O)N(C)c2cc(Nc3ccc(N4CCN(C)CC4)cc3)ncn2)c1Cl [Example 1, 3-(2,6-Dichloro-3-methoxy-phenyl)-1-methyl-1-{6-[4-(4-methyl-piperazin-1-yl)-phenylamino]-pyrimidin-4-yl}-urea] | 67 to 100 | 12 to 100 | 161.5 to 163 |  |  |  |  |  | 

Second part, led by results:

inhibition at 10 µM (KDR; 10 μM, Examples 1 to 169) [%] | inhibition at 10 µM (Tek) [%] | melting point [°C] | inhibition at 10 µM (FGFR3 (K650E); [1]) [%] | inhibition at 10 µM (KDR; 10 μM, Examples 171 to 206) [%] | inhibition at 10 µM (FGFR3 (K650E); [3]) [%] | inhibition at 10 µM (c-Abl) [%] | SMILES | inhibition at 10 µM (KDR) [%] | inhibition at 10 µM (FGFR3 (K650E); [2]) [%]
 |  |  |  | 87 to 100 | 56 to 98 | 79 to 100 | Cc1ccc(NC(=O)c2cccc(C(F)(F)F)c2)cc1NC(=O)N(C)c1cc(Nc2ccccc2)ncn1 [Example 181, N-{4-Methyl-3-[3-methyl-3-(6-phenylamino-pyrimidin-4-yl)-ureido]-phenyl}-3-trifluoromethyl-benzamide] |  | 
 |  |  |  | 87 to 100 | 56 to 98 | 79 to 100 | Cc1ccc(NC(=O)c2cccc(C(F)(F)F)c2)cc1NC(=O)N(CCN1CCN(C)CC1)c1cc(Nc2ccccc2)ncn1 [Example 189, N-{4-Methyl-3-[3-[2-(4-methyl-piperazin-1-yl)-ethyl]-3-(6-phenylamino-pyrimidin-4-yl)-ureido]-phenyl}-3-trifluoromethyl-benzamide] |  | 
 |  |  |  | 87 to 100 | 56 to 98 | 79 to 100 | Cc1ccc(NC(=O)c2cccc(C(F)(F)F)c2)cc1NC(=O)N(CCc1ccccn1)c1cc(Nc2ccc(N3CCN(C)CC3)cc2)ncn1 [Example 191, N-[4-Methyl-3-[3-{6-[4-(4-methyl-piperazin-1-yl)-phenylamino]-pyrimid-in-4-yl]-3-(2-pyridin-2-yl-ethyl)-ureido]-phenyl}-3-trifluoromethyl-benzamide] |  | 
 |  |  |  | 87 to 100 | 56 to 98 | 79 to 100 | Cc1ccc(C(=O)Nc2ccc(CN3CCN(C)CC3)c(C(F)(F)F)c2)cc1NC(=O)N(C)c1cc(N)ncn1 [Example 206, 3-[3-(6-Amino-pyrimidin-4-yl)-3-methyl-ureido]-4-methyl-N-[4-(4-methyl-piperazin-1-ylmethyl)-3-trifluoromethyl-phenyl]-benzamide] |  | 
 |  |  |  | 87 to 100 | 56 to 98 | 79 to 100 | Cc1ccc(NC(=O)c2cccc(C(F)(F)F)c2)cc1NC(=O)Nc1cc(Nc2cccc(OCCN3CCOCC3)c2)ncn1 [Example 180, N-[4-Methyl-3-(3-{6-[3-(2-morpholin-4-yl-ethoxy)-phenylamino]-pyrimidin-4-yl}-ureido)-phenyl]-3-trifluoromethyl-benzamide] |  | 
 |  |  |  | 87 to 100 | 56 to 98 | 79 to 100 | Cc1ccc(NC(=O)c2cccc(C(F)(F)F)c2)cc1NC(=O)N(C)c1cc(Nc2cccc(OCCN(C)C)c2)ncn1 [Example 182, N-[3-(3-{6-[3-(2-Dimethylamino-ethoxy)-phenylamino]-pyrimidin-4-yl}-3-methyl-ureido)-4-methyl-phenyl]-3-trifluoromethyl-benzamide] |  | 
 |  |  |  | 87 to 100 | 56 to 98 | 79 to 100 | Cc1ccc(C(=O)Nc2cccc(C(F)(F)F)c2)cc1NC(=O)N(C)c1cc(Nc2ccc(N3CCN(C)CC3)cc2)ncn1 [Example 186, 4-Methyl-3-(3-methyl-3-{6-[4-(4-methyl-piperazin-1-yl)-phenylamino]-pyrimidin-4-yl}-ureido)-N-(3-trifluoromethyl-phenyl)-benzamide] |  | 
